Consider four compounds from US11345658B2, “Compounds and compositions comprising the same for treating hypertension or heart failure” (QUANTUM GENOMICS, priority 2019, dated 2022).

Each structure is given as a SMILES string.

In assay [1] the target is T1, brain APA (Mus musculus, UniProt P16406).
T1 construct: from tissue; host or cells: mouse brain homogenate
T1 sequence (P16406 1-945): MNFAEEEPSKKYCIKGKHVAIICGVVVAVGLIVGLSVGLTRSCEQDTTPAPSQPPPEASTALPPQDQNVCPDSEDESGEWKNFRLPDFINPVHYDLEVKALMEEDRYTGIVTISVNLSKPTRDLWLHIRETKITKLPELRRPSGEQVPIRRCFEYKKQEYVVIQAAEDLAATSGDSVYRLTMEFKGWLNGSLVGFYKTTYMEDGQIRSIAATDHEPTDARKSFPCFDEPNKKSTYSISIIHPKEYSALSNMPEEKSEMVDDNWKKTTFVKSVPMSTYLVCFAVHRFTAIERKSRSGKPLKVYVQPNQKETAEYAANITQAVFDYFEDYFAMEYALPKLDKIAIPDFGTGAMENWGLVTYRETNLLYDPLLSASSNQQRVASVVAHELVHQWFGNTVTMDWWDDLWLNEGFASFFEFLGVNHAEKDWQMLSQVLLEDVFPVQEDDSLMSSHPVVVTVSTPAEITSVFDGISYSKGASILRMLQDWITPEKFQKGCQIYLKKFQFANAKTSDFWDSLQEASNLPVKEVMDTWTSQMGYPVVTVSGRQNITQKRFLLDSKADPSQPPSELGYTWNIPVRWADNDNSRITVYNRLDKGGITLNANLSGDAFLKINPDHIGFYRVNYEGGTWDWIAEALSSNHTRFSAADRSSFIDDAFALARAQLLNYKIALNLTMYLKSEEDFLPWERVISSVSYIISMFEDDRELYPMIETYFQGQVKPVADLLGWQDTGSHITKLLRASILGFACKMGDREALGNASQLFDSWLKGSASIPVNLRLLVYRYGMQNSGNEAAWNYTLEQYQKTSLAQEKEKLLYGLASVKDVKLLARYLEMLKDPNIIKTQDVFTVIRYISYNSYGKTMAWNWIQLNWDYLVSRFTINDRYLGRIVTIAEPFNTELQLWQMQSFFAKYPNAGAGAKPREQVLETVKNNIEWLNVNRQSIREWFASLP
Put plainly: Measurement of brain APA activity ex vivo after i.v. administration in mice. The note with it: 50 mg/kg i.v., 180 min after administration. Here is the method: (§1) Brain APA activity was determined as described above
In vivo, in mice (male, 18-20 g Charles River), Example 1 was administered i.v. (50 mg/kg, in a volume of 200 μL).
(§2) For each condition, four to sixteen mice and five to seven rats were used. Animals were sacrificed 180 min after the administration. The brains were immediately removed and homogenized by sonication in 10 vol of ice-cold 50 mM Tris-HCl buffer (pH 7.4). APA enzymatic activity was measured on brain homogenates. For this purpose, aliquots of the tissue homogenate (16 μL) were incubated for 30 min at 37° C. with 200 μM of Glu-βNa, 4 mM CaCl2, and 1 μM bestatin inhibitor, with or without 5 μM EC33, in a total volume of 100 μL of 50 mM Tris-HCl buffer (pH 7.4). Then the assay was pursued as described above.

In another assay the target is T2, recombinant mouse APA (Mus musculus, UniProt P16406).
T2 sequence (P16406 1-945): T1 sequence (P16406 1-945)
Put plainly: Measurement of APA activity in vitro (GluβNa hydrolysis, microplate). The note with it: 200 μM Glu-βNa, pH 7.4, 37° C., dithiothreitol, 4 mM CaCl2. In kind it is biochemical. From the text:
Measurement of APA activity in vitro is based on the protocol of Goldbarg adjusted to the scale of assaying on microplates (Pro Bind™ 3915) (Chauvel et al., 1994). In vitro, in the presence of calcium ions, APA hydrolyses a synthetic substrate α-L-glutamyl-β-naphthylamide (GluβNa) to glutamate and β-naphthylamine ([…]). A diazotation reaction in acidic medium makes it possible to reveal the β-naphthylamine by formation of a violet-colored complex: spectrophotometric measurement then makes it possible to know the amount of complex formed and, by reference to a standard curve produced with increasing concentrations of β-naphthylamine, to deduce the enzymatic activity of the sample.
The Glu-βNa substrate (Bachem) and the β-naphthylamine (Sigma) are dissolved in 50% DMSO (dimethyl sulphoxide) and 0.1 N HCl respectively, and conserved at −20° C. at a concentration of 10^−2 M. The diazotation reaction is carried out in the presence of sodium nitrite (87 mM), ammonium sulfamate (130 mM) and N-(1-naphthyl)-ethylenediamine dihydrochloride (23 mM in 95% ethanol). […]
The absorbance is then measured at 540 nm. […]

Assay [2] concerns hypertensive DOCA-salt rats. Put plainly: Measurement of mean arterial blood pressure (MABP) and heart rate (HR) in conscious hypertensive DOCA-salt rats. The format is in vivo. As to conditions: 8 mg/kg p.o. As for the experimental part: Male DOCA-salt rats were anesthetized with 3% isoflurane (Iso-vet®, Piramal, UK) for induction and 1.5-2% isoflurane for maintenance. A catheter was inserted into the right femoral artery to monitor MABP and HR. The catheter was tunneled subcutaneously to exit from the neck. Animals were maintained for 2 days in the animal room, under frequent observation, before MABP and HR recording. Baseline MABP and HR were recorded for at least 60 min before Example 2 was administered p.o. (8 mg/kg, in a volume of 400 μL). MABP and HR were recorded continuously for 6 h after treatment.

In a further assay the test system is post-MI mice. In words: Left ventricular ejection fraction (LVEF) by echocardiography in mice post myocardial infarction. In kind it is in vivo, CD1 mice. The note with it: mice 4 weeks post MI, Mean±SEM. As for the experimental part:
Adult male CD1 mice were anesthetized with a mixture of 100 mg/kg ketamine (Imalgene 1000, Merial, Lyon, France) and 10 mg/kg xylazine (Rompun 2%, Bayer Healthcare, Loos, France), via intraperitoneal injection, intubated and ventilated at a rate of 200 insufflations/min, with a mean insufflate volume of 0.2 mL (Bioseb, France). The skin was disinfected and incised between the 2nd and 3rd intercostal space and the heart was exposed by left thoracotomy. Pericardium was opened and the left anterior descending (LAD) coronary artery infarction was permanently ligatured between the pulmonary artery trunk and the left atrial appendage, with 8/0 […] suture. (PVDF monofilament, 8-0, Peters Surgical, Bobigny, France). Ischemia was confirmed by visible left ventricle (LV) bleaching under the ligature. The thorax was then closed by three discontinuous points (PVDF monofil, 6/0, Peters Surgical, Bobigny, France) then mice received a subcutaneously injection of Meloxicam 1 mg/kg (Metacam, Boehringer Ingelheim, Germany) for prolonged analgesia. The pneumothorax was drained. The muscles and skin were then sutured (prolene thread 6-0, Peters Surgical, France) and the animals were rehydrated with saline at 37° C. Animals were extubated as soon as they could breathe spontaneously. The animal was placed in a cage and monitored regularly over 48 hours. Mice received an injection of Meloxicam 1 mg/kg, 24 hours postsurgery and up to 72 hours. The same surgical procedure was performed without LAD coronary artery ligation in sham-operated mice.
Post-MI mice received chronic oral treatment firibastat (RB150 used as a reference of brain APA inhibitor) at 150 mg/kg, ramipril (ACE inhibitor as standard treatment) at 1.25 mg/kg, or example 2 at 25 mg/kg with peanut butter vehicle. […] Cardiac function was evaluated regularly by trans-thoracic echocardiography at 4 weeks post MI to analyze the effects of different chronic oral treatment on heart contractility.

The target in assay [3] is T3, brain APA (Rattus norvegicus, UniProt P50123).
T3 construct: from tissue; host or cells: DOCA-salt rat brain homogenate
T3 sequence (P50123 whole entry): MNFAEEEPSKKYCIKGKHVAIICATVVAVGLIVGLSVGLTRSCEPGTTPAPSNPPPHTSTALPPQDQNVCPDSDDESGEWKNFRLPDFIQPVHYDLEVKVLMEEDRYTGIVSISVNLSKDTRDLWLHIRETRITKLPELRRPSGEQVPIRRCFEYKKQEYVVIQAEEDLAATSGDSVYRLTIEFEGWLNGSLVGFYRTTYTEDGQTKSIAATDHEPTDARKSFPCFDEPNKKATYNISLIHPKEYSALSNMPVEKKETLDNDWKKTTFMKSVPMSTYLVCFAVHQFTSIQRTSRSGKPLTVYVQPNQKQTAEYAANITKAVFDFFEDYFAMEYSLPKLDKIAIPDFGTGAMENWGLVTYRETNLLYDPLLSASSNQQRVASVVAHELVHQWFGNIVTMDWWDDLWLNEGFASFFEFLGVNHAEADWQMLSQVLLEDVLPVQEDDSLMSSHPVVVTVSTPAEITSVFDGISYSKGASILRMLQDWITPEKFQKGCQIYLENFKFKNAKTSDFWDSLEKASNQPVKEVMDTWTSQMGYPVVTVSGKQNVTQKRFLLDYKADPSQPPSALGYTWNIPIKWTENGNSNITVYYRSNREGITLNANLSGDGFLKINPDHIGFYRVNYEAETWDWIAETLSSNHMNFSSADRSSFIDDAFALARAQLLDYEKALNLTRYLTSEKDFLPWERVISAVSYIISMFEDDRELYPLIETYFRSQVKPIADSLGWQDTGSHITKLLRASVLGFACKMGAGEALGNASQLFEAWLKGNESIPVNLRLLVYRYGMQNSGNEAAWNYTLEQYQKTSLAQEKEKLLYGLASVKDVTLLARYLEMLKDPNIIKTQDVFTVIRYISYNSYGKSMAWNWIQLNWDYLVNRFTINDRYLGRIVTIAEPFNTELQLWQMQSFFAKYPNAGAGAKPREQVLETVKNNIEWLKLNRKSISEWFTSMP
In words: Measurement of brain APA activity ex vivo after p.o. administration in DOCA-salt rats. The note with it: 8 mg/kg p.o., 180 min after administration. As for the experimental part: as §1
In vivo, in DOCA-salt rats (male, 250 g Charles River), Example 2 was administered p.o. (8 mg/kg, in a volume of 400 μL).
as §2

For the compound `N[C@@H](CCS(=O)(=O)O)CSSC[C@H](N)C(=O)O` [Example 1, (2R)-2-amino-3-{[(2S)-2-amino-4-sulfobutyl]disulfanyl}propanoic acid], at brain APA [1] (brain homogenate), the “brain APA activity” value was 39.6±5.2 nmol of Glu-βNa hydrolyzed per mg of protein per h. Also, the “decrease of brain APA activity” value on brain APA [1] (vs. control) amounted to 45%. Further, the “In vitro inhibition of aminopeptidase A, Results” value at recombinant mouse APA is 0.81 ± 0.05 µM.
Take `N[C@@H](CSS[C@@H](CCc1ccccc1)[C@@H](N)CCS(=O)(=O)O)C(=O)O` [Example 2, (2R)-2-amino-3-{[(3S,4S)-4-amino-1-phenyl-6-sulfohexan-3-yl]disulfanyl}propanoic acid]: in assay [2] (0 to 6 h after administration), the “effect on HR” value was “no effect”. Further, the “decrease in MABP” value in assay [2] (3 h after administration) is −27±11 mmHg; in assay [2] (6 h after treatment), −44±8 mmHg. The LVEF in the assay with post-MI mice (chronic oral 25 mg/kg once daily for 4 weeks) worked out at 50.6±0.9%. Further, at brain APA [3] (brain homogenate), the “brain APA activity” value is recorded as 46.1±2.4 nmol of Glu-βNa hydrolyzed per mg of protein per h. On brain APA [3] (vs. control), the “decrease of brain APA activity” value is given as 29%. Besides, the “In vitro inhibition of aminopeptidase A, Results” value on recombinant mouse APA is 0.18 ± 0.02 µM.
The compound `N[C@@H](CCS(=O)(=O)O)CSSC[C@@H](N)CCS(=O)(=O)O` [firibastat] yielded an LVEF in the assay on post-MI mice (chronic oral 150 mg/kg once daily for 4 weeks) of 50.9±1%.
`CCOC(=O)[C@H](CCc1ccccc1)N[C@@H](C)C(=O)N1[C@H](C(=O)O)C[C@@H]2CCC[C@@H]21` [ramipril] yielded an LVEF in the assay with post-MI mice (chronic oral 1.25 mg/kg once daily for 4 weeks) of 48.4±1.2%.
